For data set [1], the target named is Myc proto-oncogene protein (Homo sapiens) (UniProt P01106). Put plainly: Inhibition of C-Myc (unknown origin) expressed in rat Rat1A cells assessed as inhibition of cell growth incubated for 72 hrs by methylene blue staining based assay.
A short description of data set [2]: Intrinsic clearance in mouse liver microsomes at 1 uM in presence of NADPH by LC-MS/MS analysis. The class given is ADME, Microsome. For orientation: Liver microsomes are vesicles of endoplasmic reticulum, rich in cytochrome P450 enzymes.
The target of data set [3] is T1, N-myc proto-oncogene protein (Homo sapiens) (UniProt P04198).
T1 sequence (whole entry): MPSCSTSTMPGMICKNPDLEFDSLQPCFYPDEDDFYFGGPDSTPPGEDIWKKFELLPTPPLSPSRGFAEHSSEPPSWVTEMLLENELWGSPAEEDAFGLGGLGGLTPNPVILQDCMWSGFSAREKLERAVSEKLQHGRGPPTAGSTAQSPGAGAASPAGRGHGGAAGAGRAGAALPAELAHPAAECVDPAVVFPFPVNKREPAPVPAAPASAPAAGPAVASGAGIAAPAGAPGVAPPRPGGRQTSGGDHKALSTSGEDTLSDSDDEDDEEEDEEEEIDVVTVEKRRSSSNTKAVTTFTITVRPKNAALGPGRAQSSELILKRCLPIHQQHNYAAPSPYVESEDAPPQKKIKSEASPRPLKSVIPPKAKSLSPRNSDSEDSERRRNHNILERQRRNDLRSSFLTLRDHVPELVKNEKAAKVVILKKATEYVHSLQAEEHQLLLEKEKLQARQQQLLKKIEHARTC
Nature of the data set: Inhibition of N-Myc (unknown origin) expressed in rat Rat1A cells assessed as inhibition of cell growth incubated for 72 hrs by methylene blue staining based assay.

Data set [4] in a line: Intrinsic clearance in human liver microsomes at 1 uM in presence of NADPH by LC-MS/MS analysis. The class given is ADME, Microsome.
In data set [5] the target is Myc proto-oncogene protein (Homo sapiens) (UniProt P01106). Nature of the data set: Inhibition of Myc in human melanoma cells assessed as reduction in Myc-transactivated thymidylate synthase gene expression. Format: cell-based.
Data set [6] has the same target. Put plainly: Inhibition of Myc in human melanoma cells assessed as increase in Myc-repressed p27kip1 gene expression. Format: cell-based.
In another data set the test system is SK-MEL-103. Nature of the data set: Growth inhibition of human SK-MEL-103 cells. Format: functional, cell-based.
The subject of a further data set is SK-MEL19. Put plainly: Growth inhibition of human SK-MEL-19 cells. Format: functional, cell-based.
Data set [7] can be described thus: Stability in human liver microsomes assessed as parent compound remaining at 1 uM incubated for 0 mins in presence of NADPH by LC-MS/MS analysis. Format: ADME, Microsome. The following applies: read-out: Stability.
Data set [8] is described as follows: Stability in mouse liver microsomes assessed as parent compound remaining at 1 uM incubated for 0 mins in presence of NADPH by LC-MS/MS analysis. Format: ADME, Microsome. The following applies: read-out: Stability.
The next data set deals with BE(2)-C. Put plainly: Growth inhibition of human BE(2)-C cells. Format: functional, cell-based.
Data set [9] concerns Melanoma cell line. Put plainly: Growth inhibition of human melanoma (#10) cells. Format: functional, cell-based.
The subject of data set [10] is Melanoma cell line. Put plainly: Growth inhibition of human melanoma (#3) cells. The class given is functional, cell-based.
Another data set concerns Melanocyte. Nature of the data set: Growth inhibition of human melanocytes. The class given is cell-based.
Data set [11] is filed under the species Homo sapiens. Put plainly: Growth inhibition of human SHEP cells. Format: functional.
The test system of the next data set is IMR-32. Put plainly: Growth inhibition of human IMR32 cells. The class given is functional, cell-based.
For data set [12], the species on record is Homo sapiens. Nature of the data set: Growth inhibition of N-Myc amplified human NBL-WN cells. Format: functional.
In another data set the test system is SH-SY5Y. Nature of the data set: Growth inhibition of human SH-SY5Y cells. The class given is functional, cell-based.
For data set [13], the species on record is Homo sapiens. Put plainly: Growth inhibition of N-Myc overexpressing human NBL-S cells. The class given is functional.

Calls of active or inactive are those of the source. The rule behind the calls is not given here. Where only a bound is given, the exact number is not on record here.

Sequence of Myc proto-oncogene protein (Homo sapiens) (P01106 whole entry): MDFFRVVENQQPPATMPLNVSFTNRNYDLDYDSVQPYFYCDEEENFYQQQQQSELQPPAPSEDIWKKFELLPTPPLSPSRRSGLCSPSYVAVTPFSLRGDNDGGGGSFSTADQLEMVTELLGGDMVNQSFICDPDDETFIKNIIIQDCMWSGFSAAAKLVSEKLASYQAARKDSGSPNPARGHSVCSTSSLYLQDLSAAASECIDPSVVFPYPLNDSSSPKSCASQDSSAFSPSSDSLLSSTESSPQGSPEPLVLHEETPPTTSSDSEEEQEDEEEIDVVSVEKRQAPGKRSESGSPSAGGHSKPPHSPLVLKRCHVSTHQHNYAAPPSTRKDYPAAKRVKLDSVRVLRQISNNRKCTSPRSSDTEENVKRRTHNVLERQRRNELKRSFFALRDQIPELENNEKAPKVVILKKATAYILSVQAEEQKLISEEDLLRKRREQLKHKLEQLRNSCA

With `CCN(CC)Cc1c(C(=O)N/N=C/c2ccc(N(CC)CC)cc2O)nnn1-c1nonc1N`, the inhibition entry in data set [1] and in data set [3] was “Active” each time. The intrinsic clearance in data set [2] was 300 µL/min/mg; in data set [4], 120 µL/min/mg.
With `C=CCc1cccc(/C=N/NC(=O)c2cc(C(C)(C)C)n[nH]2)c1O`, the inhibition result in [5] and in data set [6] was “Active” in each case.
For the compound `Cc1ccc(/C=N/NC(=O)c2cc(-c3ccccc3)n[nH]2)c(O)c1`, the inhibition result in data set [1] and in data set [3] was “Active” each time.
Turning to `O=C(N/N=C/c1c(O)ccc2ccccc12)c1cc(C23CC4CC(CC(C4)C2)C3)n[nH]1`, the inhibition result in data set [5] and in data set [6] was “Active” each time.
As for `CCN(CC)C1CC(=O)N(c2cccc(Cl)c2)C1=O` (configuration not stated), the “growth inhibition (GI)” value with SK-MEL-103 and in the data set on SK-MEL19 was “inactive” each time.
As for `COc1ccc(OCC(=O)N/N=C\c2cc(O)c(O)c(Br)c2)c(Br)c1`, the inhibition result in data set [5] and in data set [6] was “Active” throughout.
Regarding `Nc1nonc1-n1nnc(C(=O)N/N=C/c2ccccc2O)c1CN1CCc2ccccc2C1`, the remaining at 0 h, 1 µM in data set [7] and in [8] was 100% throughout. Also, the inhibition result in data set [1] and in data set [3] was “Active” throughout.
Turning to `CCCOc1ccc(N2C(=O)CC(N3CCC(C(=O)O)CC3)C2=O)cc1` (configuration not stated), the “growth inhibition (GI)” value with SK-MEL-103 and in the data set on SK-MEL19 was “inactive” each time.
`COCc1cc(CN(C)C2CCCCC2)c(O)c2ncccc12`: the inhibition entry in data set [5] and in data set [6] was “Active” in each case. Further, the “growth inhibition (GI)” value in the data set on BE(2)-C, in the data set with Melanoma cell line [9], with Melanoma cell line [10], in the data set listed under Homo sapiens [11], in the data set with IMR-32 and in the data set listed under Homo sapiens [12] was “Active” each time. Moreover, the “growth inhibition (GI)” value in the data set with SH-SY5Y and in the data set listed under Homo sapiens [13] was “Active” in each case. For the same compound, the “growth inhibition (GI)” value in the data set on Melanocyte is recorded as “Non-Toxic”.
Consider `CN(C)CCCNc1cc(O)c2c(c1O)C(=O)c1ccccc1C2=O`, for which the “growth inhibition (GI)” value in the data set on SK-MEL-103 and in the data set with SK-MEL19 was “inactive” each time.
With `CCOc1cccc(/C=N/NC(=O)CSc2nc3ccccc3[nH]2)c1O`, the inhibition result in data set [5] and in [6] was “Active” in each case. Further, the “growth inhibition (GI)” value in the data set on BE(2)-C, in the data set with Melanoma cell line [9], in the data set with Melanoma cell line [10], in the data set filed under Homo sapiens [11], with IMR-32 and in the data set listed under Homo sapiens [12] was “Active” each time. The “growth inhibition (GI)” value in the data set on SH-SY5Y and in the data set filed under Homo sapiens [13] was “Active” in each case. For the same compound, in the data set with Melanocyte, the “growth inhibition (GI)” value is reported as “Non-Toxic”.
For the compound `CC(C)=NNc1ncnc2[nH]cnc12`, the “growth inhibition (GI)” value in the data set on SK-MEL-103 and with SK-MEL19 was “inactive” in each case.
On to `CC(C)(C)c1cc(C(=O)N/N=C/c2ccc(O)cc2O)n(-c2ccccc2)n1`, for which the inhibition result in data set [5] and in data set [6] was “Active” in each case. Further, the “growth inhibition (GI)” value in the data set with BE(2)-C, in the data set with Melanoma cell line [9], with Melanoma cell line [10], in the data set filed under Homo sapiens [11], in the data set with IMR-32 and in the data set filed under Homo sapiens [12] was “Active” throughout. For the same compound, the “growth inhibition (GI)” value with SH-SY5Y and in the data set listed under Homo sapiens [13] was “Active” each time. For the same compound, in the data set on Melanocyte, the “growth inhibition (GI)” value is given as “Non-Toxic”.
Turning to `O=[N+]([O-])c1ccc(CCNC2CC3CCC2C3)cc1` (configuration not stated), the “growth inhibition (GI)” value in the data set on SK-MEL-103 and in the data set with SK-MEL19 was “inactive” throughout.
Consider `CC(=O)NC(c1ccc2c(c1)OCO2)c1ccc2cccnc2c1O` (configuration not stated), for which the inhibition result in data set [5] and in data set [6] was “Active” in each case.
Take `CCCN(CCC)Cc1c(C(=O)N/N=C/c2ccc(N(CC)CC)cc2O)nnn1-c1nonc1N`: the inhibition entry in data set [1] and in [3] was “Active” in each case. The intrinsic clearance was 270 µL/min/mg in [2] and 130 µL/min/mg in data set [4].
On to `CCN(CC)c1ccc(/C=N\NC(=O)c2nnn(-c3nonc3N)c2CN2CCCCCC2)c(O)c1`, for which the inhibition entry in data set [1] and in [3] was “Active” throughout. Also, the intrinsic clearance in data set [2] came to 690 µL/min/mg; in data set [4] it was 87 µL/min/mg.
For `CCN(CC)c1ccc(/C=N/NC(=O)c2cc(C)n[nH]2)c(O)c1`, the inhibition entry in [1] and in [3] was “Active” in each case. The figures for the intrinsic clearance in data set [2] and in data set [4] were 200 µL/min/mg and 47 µL/min/mg, respectively.
On to `CCN(CC)c1ccc(/C=N/NC(=O)Cn2c3ccccc3c(=O)c3ccccc32)c(O)c1`, for which the inhibition entry in data set [1] and in data set [3] was “Active” throughout. Also, the intrinsic clearance was 100 µL/min/mg in [2] and less than 20 µL/min/mg in data set [4].

Source of the values: ChEMBL document CHEMBL4421731, “Small molecules inhibiting oncoprotein Myc” (2016).
